These results are taken from patent US20100249071A1, “Modulators of S1P and Methods of Making And Using” (Exelixis, Inc., priority 2009, published 2010).

pEC50: −log10 of the molar value.

Test [1] deals with circulating lymphocytes. The test is described as follows: Lymphocyte PD assay in rats. The test is classed as in vivo, rat. As to conditions: 24 hours after oral single dose at 3 mg/kg, Female CD rats (Sprague Dawley), compared to vehicle-only group. The method, then:
Suppression of circulating lymphocytes was assessed as a PD endpoint in jugular vein canulated Sprague Dawely (SD) rats 6-8 weeks of age and weighing approximately 200 g (Taconic Farms, Germantown, N.Y.). Prior initiating a study, rats were acclimated to the vivarium facility (12 h light cycle, 12 h dark cycle) for a minimum of 2 days. During a study, animals were provided food and water ad libitum and housed in a room conditioned at 70-75° F. and 60% relative humidity. All animals were examined daily for health assessment.
The Compound of the Invention were formulated and animals was dosed at a volume of 4 mL/kg. At indicated timepoints, whole blood was collected via jugular vein canulas into EDTA-coated tubes and hematology analysis was performed on an Abbott Cell-Dyn 3700 hematology analyzer. Readouts included white blood cells (total, differential, and % of total), neutrophils, lymphocytes, monocytes, eosinophils, basophils, RBC, HGB, hematocrit, mean corpuscule volume, mean corpuscule HGB concentration, RBC distribution width, platelets, and mean platelet volume.

Test [2] has as its target T1, hS1PR5 (hEdg8) membrane protein (Homo sapiens, UniProt Q9H228).
T1 construct: expressed in transfected cells; host or cells: CHO
Briefly: hS1P5R GTPγS binding assay (Assay 4). It counts as biochemical. In outline: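 Membranes (5 μg) from CHO cells expressing hS1PR5, incubated 1 h at room temperature with 30 μM GDP, 0.1 nM [35S]GTPγS, 0.25% fatty acid free BSA and serially diluted compound in pH 7.9 Tris buffer with MgCl2. WGA SPA beads added for another 1 h, then bound [35S]GTPγS counted by scintillation.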

Test [3] concerns the target T2, hS1P1R (hEdg1) membrane protein (Homo sapiens, UniProt P21453).
T2 construct: purchased Lonza
The test is described as follows: hS1P1R GTPγS binding assay (Assay 3a). It counts as biochemical. The essentials:
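Membranes (4 μg) expressing hS1P1R incubated 1 h at room temperature with 30 μM GDP, 0.1 nM [^35S]GTPγS, 0.25% fatty acid free BSA and serially diluted agonist in Tris-HCl pH 7.9/NaCl/MgCl2/EGTA buffer. Bound [^35S]GTPγS captured on WGA SPA beads (further 1 h) and counted.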

The target in test [4] is T3, S1P3 (Homo sapiens, UniProt Q99500).
T3 construct: host or cells: HEK293 (transient transfection)
The test is described as follows: S1P3 Tango β-arrestin recruitment assay in HEK293 cells (Assay 5). The test is classed as cell-based. As to conditions: read-out: Assay 5 EC50. The essentials: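 HEK293 cells transiently expressing S1P3 fused via TEV-cleavable linker to tTA, with β-arrestin2–TEV, treated 16-18 h at 37 °C with compounds (top 10 μM, 10-point 3-fold, 1% DMSO). Luciferase reporter luminescence normalised to DMSO background and 5 μM S1P control as percent activity; EC50 from concentration-response curves.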

Test [5] addresses T4, S1P1 (Homo sapiens, UniProt P21453).
T4 construct: host or cells: U2OS
Briefly: Tango β-arrestin recruitment assay in U2OS cells (Assay 2b). The test is classed as cell-based. The conditions noted are these: read-out: Assay 2b EC50. The essentials: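 In this agonist-mode Tango assay, U2OS cells carrying S1P1 and the reporter were serum-starved 48 h, then exposed overnight at 37 °C to compound (10 points, 3-fold, top 1 μM, 1% DMSO). β-Lactamase F460/F530 ratio was normalized to 1 μM S1P, and EC50 was fitted.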

T4 sequence (P32121 whole entry): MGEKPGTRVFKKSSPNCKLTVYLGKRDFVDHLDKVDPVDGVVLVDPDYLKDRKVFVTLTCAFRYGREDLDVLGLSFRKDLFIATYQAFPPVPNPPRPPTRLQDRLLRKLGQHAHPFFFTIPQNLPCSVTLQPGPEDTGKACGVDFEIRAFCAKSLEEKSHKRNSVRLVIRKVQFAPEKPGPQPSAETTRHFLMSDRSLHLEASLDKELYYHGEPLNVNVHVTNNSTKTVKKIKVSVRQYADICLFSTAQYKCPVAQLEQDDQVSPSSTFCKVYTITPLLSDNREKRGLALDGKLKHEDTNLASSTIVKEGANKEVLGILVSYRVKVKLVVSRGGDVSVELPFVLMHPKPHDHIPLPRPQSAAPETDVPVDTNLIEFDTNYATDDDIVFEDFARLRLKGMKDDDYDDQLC
T4 sequence (P21453 whole entry): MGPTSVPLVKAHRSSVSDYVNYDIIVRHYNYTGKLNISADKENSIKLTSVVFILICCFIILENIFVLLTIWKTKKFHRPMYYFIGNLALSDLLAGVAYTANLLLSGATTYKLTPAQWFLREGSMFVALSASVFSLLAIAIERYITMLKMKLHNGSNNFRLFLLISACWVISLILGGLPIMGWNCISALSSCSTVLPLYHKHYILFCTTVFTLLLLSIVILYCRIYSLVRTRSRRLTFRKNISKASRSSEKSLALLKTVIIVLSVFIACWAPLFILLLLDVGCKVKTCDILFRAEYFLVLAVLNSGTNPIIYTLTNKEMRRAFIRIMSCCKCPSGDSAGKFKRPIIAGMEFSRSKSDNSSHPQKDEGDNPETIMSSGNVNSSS
T3 sequence (P32121 whole entry): as the sequence (P32121 whole entry) above
T3 sequence (Q99500 whole entry): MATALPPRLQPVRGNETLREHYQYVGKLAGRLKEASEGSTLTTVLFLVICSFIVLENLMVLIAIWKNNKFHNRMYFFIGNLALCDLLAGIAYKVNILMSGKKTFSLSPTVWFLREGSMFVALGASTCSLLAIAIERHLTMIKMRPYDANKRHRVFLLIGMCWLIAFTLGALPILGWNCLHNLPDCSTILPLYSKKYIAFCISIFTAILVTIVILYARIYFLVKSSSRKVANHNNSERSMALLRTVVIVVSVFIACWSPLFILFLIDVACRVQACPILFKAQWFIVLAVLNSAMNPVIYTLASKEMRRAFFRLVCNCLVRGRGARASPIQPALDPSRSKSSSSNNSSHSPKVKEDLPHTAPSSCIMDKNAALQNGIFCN
T1 sequence (Q9H228 whole entry): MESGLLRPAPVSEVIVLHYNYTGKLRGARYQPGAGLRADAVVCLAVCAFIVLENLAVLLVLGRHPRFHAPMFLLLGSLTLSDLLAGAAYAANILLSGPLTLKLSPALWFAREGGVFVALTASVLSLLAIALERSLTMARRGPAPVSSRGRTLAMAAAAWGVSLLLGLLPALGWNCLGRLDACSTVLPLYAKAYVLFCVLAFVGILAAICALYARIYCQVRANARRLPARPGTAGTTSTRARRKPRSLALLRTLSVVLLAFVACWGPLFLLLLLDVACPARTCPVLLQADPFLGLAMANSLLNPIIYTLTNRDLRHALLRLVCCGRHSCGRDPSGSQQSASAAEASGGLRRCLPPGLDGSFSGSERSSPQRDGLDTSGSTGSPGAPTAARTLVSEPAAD
T2 sequence (P21453 whole entry): as the sequence (P21453 whole entry) above

Take `Cc1cc(-c2nnc(-c3cc(F)c(OC[C@H](N)[C@@H](C)O)cc3Cl)s2)cc(NC(C)C)n1` [Entry 62, (2R,3S)-3-amino-4-{[5-chloro-2-fluoro-4-(5-{2-methyl-6-[(1-methylethyl)amino]pyridin-4-yl}-1,3,4-thiadiazol-2-yl)phenyl]oxy}butan-2-ol]: the “Lymphocyte Counts (p < 0.05)” value in test [1] is on record as −79%. Besides, the negative-log EC50 (pEC50) in test [2] is 7.30 to 8.00; in test [3], at least 8.00; in test [4] it was below 5.00; in test [5] it was at least 8.00.

Consider `CC(C)Oc1ccc(-c2nnc(-c3cc(F)c(OC[C@H](N)CO)cc3Cl)s2)cc1Cl` [Entry 1, (2R)-2-amino-3-{[5-chloro-4-(5-{3-chloro-4-[(1-methylethyl)oxy]phenyl}-1,3,4-thiadiazol-2-yl)-2-fluorophenyl]oxy}propan-1-ol], for which, in test [1], the “Lymphocyte Counts (p < 0.05)” value is given as −80%. Besides, the pEC50 in test [2] was 7.30 to 8.00; in test [3], 7.30 to 8.00; in test [4], below 5.00; in test [5] it was 7.30 to 8.00.

Regarding `CC(C)Nc1ccc(-c2nnc(-c3cc(F)c(OCC(N)CO)cc3Cl)s2)cn1` (stereo not shown) [Entry 44, 2-amino-3-{[5-chloro-2-fluoro-4-(5-{6-[(1-methylethyl)amino]pyridin-3-yl}-1,3,4-thiadiazol-2-yl)phenyl]oxy}propan-1-ol], in test [1], the “Lymphocyte Counts (p < 0.05)” value is reported as −94%. Also, the pEC50 in test [2] is 5.55 to 6.60; in test [3], 5.55 to 6.60; in test [4], below 5.00; in test [5], at least 8.00.

`CC(C)Oc1ccc(-c2nnc(-c3cc(F)c(OC[C@H](N)[C@@H](C)O)cc3Cl)s2)cc1Cl` [Entry 73, (2R,3S)-3-amino-4-{[5-chloro-4-(5-{3-chloro-4-[(1-methylethyl)oxy]phenyl}-1,3,4-thiadiazol-2-yl)-2-fluorophenyl]oxy}butan-2-ol]: in test [1], the “Lymphocyte Counts (p < 0.05)” value is reported as −89%. For the same compound, the negative logarithm of the EC50 (pEC50) in test [2] was 7.30 to 8.00; in test [3] it was at least 8.00; in test [4], below 5.00; in test [5] it was at least 8.00.

In the case of `CC(C)Oc1ccc(-c2nnc(-c3cc(F)c(OC[C@H](N)[C@H](C)O)cc3Cl)s2)cc1Cl` [Entry 72, (2S,3S)-3-amino-4-{[5-chloro-4-(5-{3-chloro-4-[(1-methylethyl)oxy]phenyl}-1,3,4-thiadiazol-2-yl)-2-fluorophenyl]oxy}butan-2-ol], the “Lymphocyte Counts (p < 0.05)” value in test [1] was −86%. The pEC50 in test [2] was 6.60 to 7.30; in test [3], 7.30 to 8.00; in test [4] it was below 5.00; in test [5] it was at least 8.00.

For `CC(C)Nc1ccc(-c2nnc(-c3cc(F)c(OC[C@@H](N)CO)cc3Cl)s2)cn1` [Entry 77, (2S)-2-amino-3-{[5-chloro-2-fluoro-4-(5-{6-[(1-methylethyl)amino]pyridin-3-yl}-1,3,4-thiadiazol-2-yl)phenyl]oxy}propan-1-ol], the “Lymphocyte Counts (p < 0.05)” value in test [1] is −94%. Besides, the pEC50 is 5.55 to 6.60 in test [2], 5.55 to 6.60 in test [3], below 5.00 in test [4] and at least 8.00 in test [5].

In the case of `CC(C)Oc1ccc(-c2nnc(-c3cc(F)c(OC[C@H](N)CO)cc3Cl)s2)cc1C#N` [Entry 37, 5-[5-(4-{[(2R)-2-amino-3-hydroxypropyl]oxy}-2-chloro-5-fluorophenyl)-1,3,4-thiadiazol-2-yl]-2-[(1-methylethyl)oxy]benzonitrile], the “Lymphocyte Counts (p < 0.05)” value in test [1] is reported as −93%. The pEC50 in test [2] was 7.30 to 8.00; in test [3], at least 8.00; in test [4] it was below 5.00; in test [5], at least 8.00.

For the compound `CC(C)Oc1ccc(-c2nnc(-c3cc(F)c(OC[C@H](N)CO)cc3Cl)s2)cc1Br` [Entry 2, (2R)-2-amino-3-{[4-(5-{3-bromo-4-[(1-methylethyl)oxy]phenyl}-1,3,4-thiadiazol-2-yl)-5-chloro-2-fluorophenyl]oxy}propan-1-ol], the “Lymphocyte Counts (p < 0.05)” value in test [1] is reported as −93%. For the same compound, the negative logarithm of the EC50 (pEC50) in test [2] is 7.30 to 8.00; in test [3], at least 8.00; in test [4], below 5.00; in test [5], 7.30 to 8.00.
